What all share (assay): Cell proliferation inhibition experiment, CellTiter-Glo (CTG) method
What all share (assay type): cell-based

Assay [1] has as its system PC-9. The settings on record: Homo sapiens, PC-9, 72 h, PC-9 cells, 3 days. A digest of the protocol: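 Cells in log-phase growth (viability above 90% by trypan blue) were seeded at 90 μL per well in black-walled, clear-bottom 96-well plates and incubated overnight at 37° C., 5% CO2. A T0 plate was read the next day. Test compounds were added at nine concentrations in triplicate with a solvent control. Viability was measured by CellTiter-Glo luminescence on EnVision, and IC50 came from non-linear S-curve fitting in GraphPad Prism 5.0.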

Assay [2] relates to NCI-H1975. The settings on record: for IC50: Homo sapiens, NCI-H1975, 72 h, NCI-H1975 cells, CTG, 3 days; for A-431/NCI-H1975 Selectivity: ratio of A-431 IC50 to NCI-H1975 IC50. In short, it runs like this: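 NCI-H1975 cells with viability above 90% by trypan blue were seeded at 90 μL per well in black 96-well plates and incubated overnight at 37° C., 5% CO2. Compounds were added at nine concentrations in triplicate, and viability was measured with CellTiter-Glo luminescence on EnVision. IC50 came from non-linear S-curve fitting in GraphPad Prism 5.0.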

In assay [3] the test system is A-431. The settings on record: Homo sapiens, A-431, 72 h, A-431 cells, 3 days. In short, it runs like this:
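For each line, compound is added at nine threefold-spaced concentrations, highest 30 μM (A-431) or 1.111 μM (NCI-H1975, PC-9), and cells grow 3 days at 37 °C. CellTiter-Glo luminescence gives survival relative to solvent control, fitted to yield IC50.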

Molecules are shown by their SMILES.

With `C=CC(=O)Nc1cc(Nc2nccc(-c3ccc4c(cnn4C)c3)n2)c(OC)cc1N1CCC(N2CCN(C(C)C)CC2)CC1` [compound 234], the IC50 worked out at 32.7 nM in assay [1], 80.1 nM in assay [2] and 2460 nM in assay [3]. The “A-431/NCI-H1975 Selectivity” value in assay [2] worked out at 30.7.

As for `C=CC(=O)Nc1cc(Nc2nccc(-c3ccc4c(cnn4C)c3)n2)c(OC)cc1N1CCN(C2CCOCC2)CC1` [compound 235], the 50% inhibitory concentration (IC50) in assay [1] worked out at 24.9 nM; in assay [2], 94 nM; in assay [3], 2400 nM. Also, the “A-431/NCI-H1975 Selectivity” value in assay [2] is given as 25.5.

For `C=CC(=O)Nc1cc(Nc2nccc(-c3ccc4c(cnn4C)c3)n2)c(OC)cc1N1CCC(N2C[C@@H](C)O[C@@H](C)C2)CC1` [compound 236], the IC50 was 38.7 nM in assay [1], 60 nM in assay [2] and 2080 nM in assay [3]. Moreover, the “A-431/NCI-H1975 Selectivity” value in assay [2] was determined as 34.7.

As for `C=CC(=O)Nc1cc(Nc2nccc(-c3ccc4c(cnn4C)c3)n2)c(OC)cc1OCCN(C)C` [compound 237], the 50% inhibitory concentration (IC50) in assay [1] came out at 44.5 nM; in assay [2] it was 21.7 nM; in assay [3], 1820 nM. Further, the “A-431/NCI-H1975 Selectivity” value in assay [2] came out at 84.1.

For `C=CC(=O)Nc1cc(Nc2nccc(-c3ccc4c(cnn4C(C)C)c3)n2)c(OC)cc1N(C)CCN(C)C` [compound 238], the IC50 in assay [1] came to 99.4 nM; in assay [2], 51.6 nM; in assay [3], 1940 nM. Also, the “A-431/NCI-H1975 Selectivity” value in assay [2] is reported as 37.6.

For `C=CC(=O)Nc1cc(Nc2nccc(-c3ccc4c(cnn4C)c3)n2)c(OC)cc1N(C)CCN(CC)CC` [compound 239], the values for the concentration for half-maximal inhibition (IC50) in assay [1], in assay [2] and in assay [3] were 67.9 nM, 33 nM and 1580 nM, respectively. In assay [2], the “A-431/NCI-H1975 Selectivity” value is given as 47.8.

As for `C=CC(=O)Nc1cc(Nc2nccc(-c3ccc4c(cnn4CC)c3)n2)c(OC)cc1N(C)CCN(CC)CC` [compound 240], the half-inhibitory concentration (IC50) was 110 nM in assay [1], 62 nM in assay [2] and 2980 nM in assay [3]. For the same compound, the “A-431/NCI-H1975 Selectivity” value in assay [2] is recorded as 48.0.

Regarding `C=CC(=O)Nc1cc(Nc2nccc(-c3ccc4c(cnn4C)c3)n2)c(OC)cc1N(C)CCN(C)CC` [compound 241], the half-inhibitory concentration (IC50) in assay [1] came to 211 nM; in assay [2] it was 22.9 nM; in assay [3] it was 1040 nM. For the same compound, in assay [2], the “A-431/NCI-H1975 Selectivity” value was determined as 45.3.

In the case of `C=CC(=O)Nc1cc(Nc2nccc(-c3ccc4c(cnn4C)c3)n2)c(OCC)cc1N(C)CCN(C)C` [compound 242], the IC50 in assay [1] is 28.1 nM; in assay [2] it was 26.7 nM; in assay [3], 1200 nM. The “A-431/NCI-H1975 Selectivity” value in assay [2] is listed as 45.0.

`C=CC(=O)Nc1cc(Nc2nccc(-c3ccc4c(cnn4CC)c3)n2)c(OCC)cc1N(C)CCN(C)C` [compound 243]: the half-inhibitory concentration (IC50) worked out at 65.4 nM in assay [1], 42.9 nM in assay [2] and 2180 nM in assay [3]. Moreover, the “A-431/NCI-H1975 Selectivity” value in assay [2] amounted to 50.8.

As for `C=CC(=O)Nc1cc(Nc2nccc(-c3ccc4c(cnn4C)c3)n2)c(OC)cc1N(C)CCN1CCN(C)CC1` [compound 244], the IC50 turned out to be 84.7 nM in assay [1], 59.7 nM in assay [2] and 2400 nM in assay [3]. The “A-431/NCI-H1975 Selectivity” value in assay [2] amounted to 40.2.

Consider `C=CC(=O)Nc1cc(Nc2nccc(-c3ccc4c(cnn4C)c3)n2)c(OC(F)F)cc1N(C)CCN1CCN(C)CC1` [compound 245], for which the results for the half-maximal inhibitory concentration (IC50) in assay [1], in assay [2] and in assay [3] were 70.7 nM, 61.6 nM and 2380 nM, respectively. The “A-431/NCI-H1975 Selectivity” value in assay [2] is given as 38.6.

`C=CC(=O)Nc1cc(Nc2nccc(-c3ccc4c(cnn4C)c3)n2)c(OC)cc1N(C)CCNC(C)(C)C` [compound 246]: the figures for the half-maximal inhibitory concentration (IC50) in assay [1], in assay [2] and in assay [3] were 67.2 nM, 89.7 nM and 2300 nM, respectively. Besides, the “A-431/NCI-H1975 Selectivity” value in assay [2] amounted to 25.6.

As for `C=CC(=O)Nc1cc(Nc2nccc(-c3ccc4c(cnn4C)c3)n2)c(OC(F)F)cc1N(C)CCNC(C)(C)C` [compound 247], the IC50 in assay [1] was found to be 37.4 nM; in assay [2], 37.1 nM; in assay [3], 2990 nM. For the same compound, the “A-431/NCI-H1975 Selectivity” value in assay [2] amounted to 80.5.

`C=CC(=O)Nc1cc(Nc2nccc(-c3ccc4c(cnn4C)c3)n2)c(OC)cc1NCCN(C)C` [compound 248]: the IC50 in assay [1] worked out at 27.7 nM; in assay [2], 13.3 nM; in assay [3], 2850 nM. The “A-431/NCI-H1975 Selectivity” value in assay [2] is reported as 214.3.

As for `C=CC(=O)Nc1cc(Nc2nccc(-c3ccc4c(cnn4C)c3)n2)c(OC(F)F)cc1NCCN(C)C` [compound 249], the values for the concentration for half-maximal inhibition (IC50) in assay [1], in assay [2] and in assay [3] were 61 nM, 8.6 nM and 943 nM, respectively. Further, the “A-431/NCI-H1975 Selectivity” value in assay [2] is reported as 109.7.

As for `C=CC(=O)Nc1cc(Nc2nccc(-c3ccc4c(cnn4C)c3)n2)c(OC)cc1N(C)CCN1CCN(C2CC2)CC1` [compound 252], the figures for the half-inhibitory concentration (IC50) in assay [1], in assay [2] and in assay [3] were 25.5 nM, 188 nM and 2990 nM, respectively. For the same compound, in assay [2], the “A-431/NCI-H1975 Selectivity” value was determined as 16.0.

For the compound `C=CC(=O)Nc1cc(Nc2nccc(-c3ccc4c(cnn4C)c3)n2)c(OC)cc1N1CCC(N2CCN(C(C)=O)CC2)CC1` [compound 253], the results for the concentration for half-maximal inhibition (IC50) in assay [1], in assay [2] and in assay [3] were 32.1 nM, 62.2 nM and 2490 nM, respectively. Also, in assay [2], the “A-431/NCI-H1975 Selectivity” value is listed as 40.0.

With `C=CC(=O)Nc1cc(Nc2nccc(-c3ccc4c(cnn4C)c3)n2)c(OC)cc1N(C)CCN1CCN(C(C)=O)CC1` [compound 254], the IC50 was determined as 30.9 nM in assay [1], 132 nM in assay [2] and 2270 nM in assay [3]. Besides, the “A-431/NCI-H1975 Selectivity” value in assay [2] came to 17.2.

Consider `C=CC(=O)Nc1cc(Nc2nccc(-c3ccc4nc(C)sc4c3)n2)c(OC)cc1N(C)CCN(C)C` [compound 255], for which the half-maximal inhibitory concentration (IC50) in assay [1] came to 30 nM; in assay [2] it was 46.4 nM; in assay [3] it was 2010 nM. Also, in assay [2], the “A-431/NCI-H1975 Selectivity” value was determined as 43.4.

Consider `C=CC(=O)Nc1cc(Nc2cc(-c3ccc4c(cnn4C)c3)ncn2)c(OC(F)F)cc1N(C)CCN(C)C(C)C` [compound 256], for which the half-inhibitory concentration (IC50) worked out at 19.2 nM in assay [1], 9.6 nM in assay [2] and 992 nM in assay [3]. Also, the “A-431/NCI-H1975 Selectivity” value in assay [2] is recorded as 103.3.

As to `C=CC(=O)Nc1cc(Nc2nccc(-c3ccc4c(cnn4C)c3)n2)c(OC)cc1N(C)CCN(C)C(C)C` [compound 257], the results for the half-maximal inhibitory concentration (IC50) in assay [1], in assay [2] and in assay [3] were 42.7 nM, 58.6 nM and 2070 nM, respectively. Moreover, the “A-431/NCI-H1975 Selectivity” value in assay [2] was determined as 35.3.

Take `C=CC(=O)Nc1cc(Nc2nccc(-c3ccc4c(cnn4C)c3)n2)c(OCC)cc1N(C)CCN(C)CC` [compound 258]: the IC50 in assay [1] was 32.4 nM; in assay [2], 51.6 nM; in assay [3], 2950 nM. For the same compound, the “A-431/NCI-H1975 Selectivity” value in assay [2] worked out at 57.1.

On to `C=CC(=O)Nc1cc(Nc2nccc(-c3ccc4c(cnn4C)c3)n2)c(OC(F)F)cc1N(C)CCN(C)CC` [compound 259], for which the concentration for half-maximal inhibition (IC50) in assay [1] worked out at 19.9 nM; in assay [2], 14.9 nM; in assay [3], 1530 nM. The “A-431/NCI-H1975 Selectivity” value in assay [2] is 102.6.

`C=CC(=O)Nc1cc(Nc2nccc(-c3ccc4c(cnn4C)c3)n2)c(OC(F)F)cc1N(C)CCN(C)C` [compound 260]: the half-maximal inhibitory concentration (IC50) in assay [1] amounted to 20.1 nM; in assay [2], 12.8 nM; in assay [3], 1320 nM. The “A-431/NCI-H1975 Selectivity” value in assay [2] turned out to be 103.5.

Consider `C=CC(=O)Nc1c(N(C)CCN(C)C)cc(OC)c(Nc2nccc(-c3ccc4c(cnn4C)c3)n2)c1F` [compound 261], for which the IC50 in assay [1] is 40.8 nM; in assay [2], 37 nM; in assay [3], 2100 nM. The “A-431/NCI-H1975 Selectivity” value in assay [2] is listed as 56.8.

Consider `C=CC(=O)Nc1cc(Nc2nccc(-c3ccc4c(cnn4C)c3)n2)c(OC)cc1N1CCC(N(CC)CC)CC1` [compound 262], for which the figures for the IC50 in assay [1], in assay [2] and in assay [3] were 52.7 nM, 124 nM and 2980 nM, respectively. For the same compound, the “A-431/NCI-H1975 Selectivity” value in assay [2] is on record as 24.1.

For the compound `C=CC(=O)Nc1cc(Nc2cc(-c3ccc4c(cnn4C)c3)ncn2)c(OC)cc1N(C)CCNC(C)C` [compound 263], the IC50 in assay [1] was 18.5 nM; in assay [2] it was 9.1 nM; in assay [3], 1200 nM. Moreover, the “A-431/NCI-H1975 Selectivity” value in assay [2] turned out to be 131.9.

For `C=CC(=O)Nc1cc(Nc2cc(-c3ccc4c(cnn4C)c3)ncn2)c(OC)cc1N1C[C@@H](C)N[C@@H](C)C1` [compound 264], the IC50 in assay [1] is 22.1 nM; in assay [2], 5.5 nM; in assay [3], 924 nM.

Regarding `C=CC(=O)Nc1cc(Nc2cc(-c3ccc4c(cnn4C)c3)ncn2)c(OCC)cc1N1C[C@@H](C)N[C@@H](C)C1` [compound 265], the IC50 in assay [1] is 34.7 nM; in assay [2], 20.6 nM; in assay [3], 1620 nM. In assay [2], the “A-431/NCI-H1975 Selectivity” value is 78.9.

Regarding `C=CC(=O)Nc1cc(Nc2cc(-c3ccc4c(cnn4C)c3)ncn2)c(OC(F)F)cc1N1C[C@@H](C)N[C@@H](C)C1` [compound 266], the IC50 in assay [1] turned out to be 24.8 nM; in assay [2], 10.1 nM; in assay [3] it was 938 nM. Further, in assay [2], the “A-431/NCI-H1975 Selectivity” value came to 92.9.

For the compound `C=CC(=O)Nc1cc(Nc2cc(-c3ccc4c(cnn4C)c3)ncn2)c(OC)cc1N1CCN(C(C)(C)CO)CC1` [compound 268], the 50% inhibitory concentration (IC50) in assay [1] is 15.6 nM; in assay [2], 27.1 nM; in assay [3] it was 1700 nM. Also, the “A-431/NCI-H1975 Selectivity” value in assay [2] was 62.7.
